Each structure is given as a SMILES string.

This assay has as its target T1, P2X purinoceptor 7 (Homo sapiens, UniProt Q99572).
T1 sequence (Q99572 whole entry): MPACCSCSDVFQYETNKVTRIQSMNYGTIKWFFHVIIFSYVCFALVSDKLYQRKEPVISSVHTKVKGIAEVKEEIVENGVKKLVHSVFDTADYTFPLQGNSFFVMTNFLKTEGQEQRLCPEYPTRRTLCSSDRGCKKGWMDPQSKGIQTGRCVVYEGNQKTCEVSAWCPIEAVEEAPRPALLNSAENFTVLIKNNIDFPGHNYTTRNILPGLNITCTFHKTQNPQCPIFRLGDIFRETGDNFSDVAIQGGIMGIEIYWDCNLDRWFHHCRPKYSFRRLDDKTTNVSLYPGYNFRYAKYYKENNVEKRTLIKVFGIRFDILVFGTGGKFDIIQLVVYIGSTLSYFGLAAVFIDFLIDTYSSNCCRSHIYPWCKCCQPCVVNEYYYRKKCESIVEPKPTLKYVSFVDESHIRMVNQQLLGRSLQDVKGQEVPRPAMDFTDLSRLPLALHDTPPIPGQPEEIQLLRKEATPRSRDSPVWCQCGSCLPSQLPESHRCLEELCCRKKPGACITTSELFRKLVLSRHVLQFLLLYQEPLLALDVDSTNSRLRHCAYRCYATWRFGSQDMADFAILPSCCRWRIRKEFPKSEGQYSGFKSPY
Kind of assay: SUPPLEMENTARY: Inhibition of human P2X7 receptor assessed as inhibition of ethidium bromide accumulation. Same assay as CHEMBL1103860.
Turning to `Cc1n[nH]c(C)c1CC(=O)NCc1cc(Cl)ccc1Cl`, the IC50 (commonly the concentration that inhibits the measured activity by half) is 0.316 µM.

For the compound `Cc1noc(C)c1CC(=O)NCc1ccc(F)cc1Br`, the half-inhibitory concentration (IC50) was 0.0501 µM.

As to `Cc1noc(C)c1CC(=O)NCc1c(Cl)cccc1Cl`, the 50% inhibitory concentration (IC50) was 0.0631 µM. For the compound `Cc1n[nH]c(C)c1CC(=O)NCc1ccc(C(F)(F)F)cc1`, the IC50 was 0.398 µM. As for `Cc1ccc(Cl)c(CNC(=O)Cc2c(C)n[nH]c2C)c1F`, the IC50 was 0.631 µM.

Consider `Cc1noc(C)c1CC(=O)NCc1ccc(Cl)c(C(F)(F)F)c1`, for which the IC50 was 0.158 µM. `Cc1noc(C)c1CC(=O)NCc1cccc(Cl)c1Cl`: the IC50 is 0.0316 µM. On to `Cc1n[nH]c(C)c1CC(=O)NCc1cccc(Cl)c1C`, for which the IC50 was 0.00501 µM.

Turning to `Cc1ccccc1CNC(=O)Cc1c(C)noc1C`, the IC50 was 0.501 µM. Turning to `Cc1ccc(CNC(=O)Cc2c(C)n[nH]c2C)c(C)c1`, the IC50 was 0.158 µM.

In the case of `Cc1n[nH]c(C)c1CC(=O)NCc1c(F)cccc1Cl`, the IC50 was 0.158 µM. Consider `Cc1n[nH]c(C)c1CC(=O)NCc1ccc(F)c(C(F)(F)F)c1`, for which the IC50 is 0.0501 µM.

In the case of `Cc1noc(C)c1CC(=O)NCc1ccc(F)cc1C(F)(F)F`, the IC50 is 0.2 µM.

Take `Cc1noc(C)c1CC(=O)NCc1ccc(F)cc1F`: the half-maximal inhibitory concentration (IC50) is 0.501 µM.

On to `Cc1n[nH]c(C)c1CC(=O)NCc1ccccc1Br`, for which the half-maximal inhibitory concentration (IC50) is 0.251 µM. Consider `Cc1n[nH]c(C(F)(F)F)c1CC(=O)NCc1ccc(F)c(F)c1Cl`, for which the IC50 was 0.00501 µM.

On to `Cc1noc(C)c1CC(=O)NCc1c(F)cccc1Cl`, for which the IC50 is 0.398 µM. `CCc1noc(CC)c1CC(=O)NCc1ccc(F)cc1Cl`: the IC50 was 0.0398 µM. As for `Cc1noc(C)c1CC(=O)NCc1ccc(F)c(Cl)c1F`, the IC50 was 0.0398 µM. Consider `CCc1n[nH]c(CC)c1CC(=O)NCc1ccc(F)c(F)c1F`, for which the IC50 is 0.0316 µM. As for `Cc1noc(C)c1CC(=O)NCc1ccc(F)c(F)c1Cl`, the IC50 was 0.0316 µM.

On to `Cc1noc(C)c1CC(=O)NCc1cccc(C(F)(F)F)c1F`, for which the half-inhibitory concentration (IC50) was 0.0316 µM. For the compound `Cc1cccc(CNC(=O)Cc2c(C)noc2C)c1C`, the IC50 was 0.2 µM.

On to `Cc1noc(C)c1CC(=O)NCc1ccc(F)c(F)c1F`, for which the IC50 is 0.158 µM.

Take `Cc1n[nH]c(C)c1CC(=O)N[C@H]1CCCc2ccccc21`: the IC50 is 0.1 µM. The result for `Cc1ccc(CNC(=O)Cc2c(C)noc2C)c(F)c1` reads 0.158 µM. The result for `CC(C)c1n[nH]c(C(C)C)c1CC(=O)NCc1ccc(F)c(F)c1F` reads 0.158 µM; that for `Cc1noc(C)c1CC(=O)NCc1ccccc1Br`, 0.501 µM. On to `Cc1ccccc1CNC(=O)Cc1c(C)n[nH]c1C`, for which the IC50 is 0.158 µM. `Cc1ccc(F)c(CNC(=O)Cc2c(C)n[nH]c2C)c1Cl`: the IC50 was 0.0794 µM. As for `Cc1ccc(F)c(CNC(=O)Cc2c(C)noc2C)c1Cl`, the half-inhibitory concentration (IC50) was 0.2 µM. Take `Cc1n[nH]c(C)c1CC(=O)NCc1cc(F)ccc1Cl`: the IC50 is 0.398 µM. In the case of `Cc1cccc(Cl)c1CNC(=O)Cc1c(C)n[nH]c1C`, the IC50 is 0.0158 µM. Consider `Cc1noc(C)c1CC(=O)NCc1cccc(Cl)c1F`, for which the half-inhibitory concentration (IC50) was 0.2 µM.

In the case of `CC(C)c1noc(C(C)C)c1CC(=O)NCc1ccc(F)cc1Cl`, the IC50 was 0.158 µM. The result for `Cc1n[nH]c(C)c1CC(=O)NCc1c(Cl)cccc1Cl` reads 0.0316 µM; that for `Cc1[nH]nc(C(C)(C)C)c1CC(=O)NCc1ccc(F)cc1Cl`, 0.158 µM; that for `Cc1n[nH]c(C)c1CC(=O)NCc1cc(Cl)cc(Cl)c1`, 1 µM. Turning to `Cc1noc(C)c1CC(=O)NCc1ccc(Cl)cc1`, the half-maximal inhibitory concentration (IC50) is 0.794 µM.

On to `Cc1noc(C)c1CC(=O)NCc1cccc(C(F)(F)F)c1C`, for which the IC50 was 0.01 µM. Take `Cc1noc(C)c1CC(=O)NCc1ccc(C(F)(F)F)c(F)c1`: the IC50 is 0.398 µM. The result for `Cc1n[nH]c(C)c1CC(=O)NCc1ccc(Cl)c(Cl)c1` reads 0.2 µM; that for `Cc1noc(C)c1CC(=O)NCc1cccc(F)c1C`, 1 µM. Take `Cc1n[nH]c(C)c1CC(=O)NCc1ccc(Br)cc1F`: the IC50 was 0.0501 µM. `Cc1cc(Cl)ccc1CNC(=O)Cc1c(C)noc1C`: the IC50 is 0.0251 µM.

For the compound `Cc1cccc(Cl)c1CNC(=O)Cc1c(C)noc1C`, the IC50 is 0.0251 µM. As for `Cc1ccc(CNC(=O)Cc2c(C)noc2C)c(C)c1`, the IC50 was 0.251 µM.

As for `Cc1noc(C)c1CC(=O)NCc1ccccc1Cl`, the half-inhibitory concentration (IC50) was 0.1 µM. As to `Cc1n[nH]c(C)c1CC(=O)NCc1ccc(F)c(F)c1F`, the IC50 is 0.0631 µM.

Turning to `Cc1noc(C)c1CC(=O)NCc1cccc(Cl)c1C`, the half-maximal inhibitory concentration (IC50) is 0.0251 µM. For the compound `Cc1ccc(CNC(=O)Cc2c(C)noc2C)c(F)c1F`, the IC50 was 0.794 µM.

`Cc1noc(C)c1CC(=O)NCc1ccc(Cl)c(Cl)c1`: the IC50 was 0.316 µM.

Regarding `Cc1n[nH]c(C(F)(F)F)c1CC(=O)NCc1cccc(C(F)(F)F)c1Cl`, the 50% inhibitory concentration (IC50) is 0.00251 µM. On to `Cc1cc(F)ccc1CNC(=O)Cc1c(C)noc1C`, for which the IC50 was 0.1 µM.

Source of the values: ChEMBL document CHEMBL2094195, “Structure-activity relationship data for a series of N-(phenylmehtyl)-2-(1H-pyrazol-4-yl)acetamide and N-(phenylmethyl)2-(4-isoxazolyl) acetamide antagonists of the P2X7 receptor (Supplementary Bioactivity Data for publication CHEMBL1157114)”.
